Among the data in patent publication US11186564B2, “Dual NAV1.2/5HT2a inhibitors for treating CNS disorders” (Sunovion Pharmaceuticals Inc., priority 2016, dated 2021) are IC50 values, retold here.

Molecules are shown by their SMILES. A value given as a limit tells only on which side of the number the result lay.

For one test, the target named is T1, recombinant human serotonin receptor 5-HT2A (Homo sapiens, UniProt P28223).
T1 construct: expressed in transfected cells; method B: loaded with Ca2+ dye
T1 sequence (P28223 whole entry): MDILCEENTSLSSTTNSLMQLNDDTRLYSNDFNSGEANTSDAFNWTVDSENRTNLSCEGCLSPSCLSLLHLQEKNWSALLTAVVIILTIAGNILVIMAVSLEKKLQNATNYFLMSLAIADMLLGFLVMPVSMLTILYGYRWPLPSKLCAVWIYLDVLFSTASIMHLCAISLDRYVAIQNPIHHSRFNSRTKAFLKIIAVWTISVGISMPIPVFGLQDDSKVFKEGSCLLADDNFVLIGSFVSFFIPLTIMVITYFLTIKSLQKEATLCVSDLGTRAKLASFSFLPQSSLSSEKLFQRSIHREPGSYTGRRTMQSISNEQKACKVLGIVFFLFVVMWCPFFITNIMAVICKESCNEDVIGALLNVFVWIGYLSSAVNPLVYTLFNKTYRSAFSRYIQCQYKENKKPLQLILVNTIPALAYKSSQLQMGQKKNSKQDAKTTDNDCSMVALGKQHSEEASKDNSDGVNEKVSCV
Briefly: 5-HT2A antagonist Ca2+ assay in CHO-K1 cells (method A aequorin luminescence / method B FLIPR fluorescence). The format is cell-based. Conditions: 5HT2A IC50, μM, antagonist mode vs EC80 of reference agonist, method A or B. An excerpt: The methods utilized to assess the inhibitory activity of compounds on recombinant human serotonin receptor 5-HT2A was based upon previously published approaches [Jerman J C, Brough S J, Gager T, Wood M, Coldwell M C, Smart D, Middlemiss D N. Pharmacological characterisation of human 5-HT2 receptor subtypes. European Journal of Pharmacology 2001 Feb. 23; 414(1):23-30; Le Poul E, Hisada S, Mizuguchi Y, Dupriez V J, Burgeon E, Detheux M. Adaptation of aequorin functional assay to high throughput screening. J Biomolecular Screening 2002 February; 7(1):57-65.] The 5-HT2A receptor signals through Gq-phospholipase signaling cascade, which leads to a transient increase in free intracellular […] concentration. Both 5-HT2A assay methods rely upon monitoring these changes in Ca^2+ concentration.
In method A [Le Poul E, Hisada S, Mizuguchi Y, Dupriez V J, Burgeon E, Detheux M. (2002)], CHO-K1 cells engineered to stably co-express both recombinant human 5-HT2A and mitochondrial apoaequorin are used. […] For agonist testing, 50 microliters of cell suspension is mixed with 50 microliters of a solution containing test compound or reference agonist in a 96-well standard geometry microtiter plate. The resulting emission of light was recorded using a Hamamatsu Functional Drug Screening System 6000 (FDSS 6000) luminometer. For antagonist testing, 100 microliters of the solution of reference agonist (to yield an agonist concentration, EC80, sufficient to cause the cells to generate an 80% maximal luminescence response in the absence of any antagonist) is injected into the mix of cells and test compound, 15 minutes after the first injection. The resulting emission of light is recorded using Hamamatsu FDSS 6000 luminometer. IC50 values are calculated (from compound concentration dependent inhibition of agonist-induced 5-HT2A-dependent light emission) by non-linear least squares regression of the data (percent inhibition) onto equation (1) above.
In method B [Jerman J C, Brough S J, Gager T, Wood M, Coldwell M C, Smart D, Middlemiss D N. (2001)], CHO-K1 cells which had been engineered to stably co-express recombinant human 5-HT2A are used in assay done similarly to method A. In method B, the cells are loaded with a fluorogenic Ca^2+ indicator dye by pre-incubation. Addition of the reference agonist serotonin causes a transient increase in fluorescence in a suspension of the loaded cells, which can be detected using the Molecular Devices fluorometric imaging plate reader (FLIPR), a high-throughput platform for 96-well cell-based assays. Addition of test compounds that are 5-HT2A antagonists, prior to the addition of the agonist (to yield an agonist concentration, EC80, sufficient to cause the cells to generate an 80% maximal fluorescence response in the absence of any antagonist), reduces the amount of fluorescence detected by the FLIPR upon agonist addition. IC50 values are calculated (from compound concentration dependent inhibition of agonist-induced 5-HT2A-dependent fluorescence) by non-linear least squares regression of the data (percent inhibition) onto equation (1) above.
For the compound `c1ccc2c(c1)CC(CN1CCC3(CC1)OCc1ccccc13)C2` [Example 392, 1′-((2,3-dihydro-1H-inden-2-yl)methyl)-3H-spiro[isobenzofuran-1,4′-piperidine]], the IC50 stood at 1.59 µM.

Staying with this test, now noted: antagonist mode vs EC80 of reference agonist, method A or B, read-out: 5HT2A IC50.
Take `CC1(C)Oc2ccccc2C1CN1CCC(Oc2ccc(F)cc2)CC1` (centres unmarked) [Example 135, 1-((2,2-dimethyl-2,3-dihydrobenzofuran-3-yl)methyl)-4-(4-fluorophenoxy)piperidine]: the IC50 came to 0.12 µM.

Turning to `OC(CO[C@H]1CCc2ccccc21)CN1CC[C@H](Oc2cccc(F)c2)C1` (stereo partly drawn) [Example 35, 1-(((S)-2,3-dihydro-1H-inden-1-yl)oxy)-3-((S)-3-(3-fluorophenoxy)pyrrolidin-1-yl)propan-2-ol], the IC50 turned out to be 7.13 µM.

In the case of `COc1ccccc1O[C@@H]1CCN(CC2Cc3ccccc3C2)C[C@H]1C` [Example 145, (3R,4R)-1-((2,3-dihydro-1H-inden-2-yl)methyl)-4-(2-methoxyphenoxy)-3-methylpiperidine], the IC50 was 0.01 µM.

Take `c1ccc2c(c1)CC1(CCN(CC3CCc4cccnc43)CC1)O2` (centres unmarked) [Example 394, 1′-((6,7-dihydro-5H-cyclopenta[b]pyridin-7-yl)methyl)-3H-spiro[benzofuran-2,4′-piperidine]]: the IC50 is above 10.9 µM.

As for `OC1(CN2CCC3(CCc4ccccc4O3)CC2)COCc2ccccc21` (centres unmarked) [Example 413, 4-(spiro[chromane-2,4′-piperidin]-1′-ylmethyl)isochroman-4-ol], the IC50 was 1.1 µM.

For `COc1ccc2c(c1)C(CN1CCC(OCc3ccncc3)CC1)CC2` (centres unmarked) [Example 248, 4-(((1-((6-methoxy-2,3-dihydro-1H-inden-1-yl)methyl)piperidin-4-yl)oxy)methyl)pyridine], the IC50 was above 3.16 µM.

As for `OC(CO[C@@H]1CCc2ccccc21)CN1CC[C@H](Oc2cccc(F)c2)C1` (stereo partly drawn) [Example 37, 1-(((R)-2,3-dihydro-1H-inden-1-yl)oxy)-3-((S)-3-(3-fluorophenoxy)pyrrolidin-1-yl)propan-2-ol], the IC50 was 9.01 µM.

`OC(CO[C@@H]1CCCc2ccccc21)CN1CC[C@H](Oc2ccc(F)cc2)C1` (stereo partly drawn) [Example 51, 1-((S)-3-(4-fluorophenoxy)pyrrolidin-1-yl)-3-(((R)-1,2,3,4-tetrahydronaphthalen-1-yl)oxy)propan-2-ol]: the IC50 is 0.49 µM.

As to `COc1ccccc1O[C@@H]1CCN(CCN2CCc3ccccc3C2=O)C1` [Example 13, (R)-2-(2-(3-(2-methoxyphenoxy)pyrrolidin-1-yl)ethyl)-3,4-dihydroisoquinolin-1(2H)-one], the concentration for half-maximal inhibition (IC50) was found to be 1.93 µM.

For `N#Cc1ccc(O[C@@H]2CCN(CCN3CCc4ccccc4C3=O)C2)cc1` [Example 31, (R)-4-((1-(2-(1-oxo-3,4-dihydroisoquinolin-2(1H)-yl)ethyl)pyrrolidin-3-yl)oxy) benzonitrile], the IC50 is above 16.7 µM.

As for `COc1ccc2c(c1)[C@@H](CN1C[C@@H]3CC[C@H]1CN3c1ccccc1)CC2` (single isomer, unassigned) [Compound 311], the half-maximal inhibitory concentration (IC50) came out at 0.01 µM.

For the compound `COc1ccccc1O[C@H]1CCN(CCN2CCc3ccccc3C2=O)[C@@H]1C` [Example 18, 2-(2-((2R,3S)-3-(2-methoxyphenoxy)-2-methylpyrrolidin-1-yl)ethyl)-3,4-dihydroisoquinolin-1(2H)-one], the IC50 amounted to 0.02 µM.

As for `COc1ccccc1O[C@@H]1CCN(CC2Cc3cccnc3C2)[C@@H](C)C1` (stereo partly drawn) [Example 149, 6-(((2S,4R)-4-(2-methoxyphenoxy)-2-methylpiperidin-1-yl)methyl)-6,7-dihydro-5H-cyclopenta[b]pyridine], the IC50 stood at 0.3 µM.

In the case of `COc1ccc2c(c1)C(CN1C[C@H]3CC[C@@H]1CN3c1ccccc1)CC2` (single isomer, unassigned) [Compound 314], the IC50 is above 10 µM.

Regarding `OC(CO[C@H]1CCc2ccccc21)CN1CC[C@H](Oc2ccc(F)cc2)C1` (stereo partly drawn) [Example 43, 1-(((S)-2,3-dihydro-1H-inden-1-yl)oxy)-3-((S)-3-(4-fluorophenoxy)pyrrolidin-1-yl)propan-2-ol], the IC50 was 2.08 µM.

Regarding `OC(CO[C@H]1CCc2ccccc21)CN1CCC(Oc2ccc(F)cc2)CC1` (stereo in doubt) [Example 237, (R)-1-(((S)-2,3-dihydro-1H-inden-1-yl)oxy)-3-(4-(4-fluorophenoxy)piperidin-1-yl)propan-2-ol], the IC50 was 0.6 µM.

Regarding `OC(COC1CCCCC1)CN1CCCC12CCN(c1ccccc1)C2` (centres unmarked) [Example 349, 1-(cyclohexyloxy)-3-(7-phenyl-1,7-diazaspiro[4.4]nonan-1-yl)propan-2-ol], the IC50 is above 16.7 µM.

As for `OC(CO[C@H]1CCCc2ccccc21)CN1CC[C@@H](Oc2ccc(F)cc2)C1` (stereo partly drawn) [Example 48, 1-((R)-3-(4-fluorophenoxy)pyrrolidin-1-yl)-3-(((S)-1,2,3,4-tetrahydronaphthalen-1-yl)oxy)propan-2-ol], the half-maximal inhibitory concentration (IC50) was 2.22 µM.

Regarding `COc1ccc2c(c1)C(CN1CCC(Oc3cccc(C#N)c3)CC1)CC2` (centres unmarked) [Example 110, 3-((1-((6-methoxy-2,3-dihydro-1H-inden-1-yl)methyl)piperidin-4-yl)oxy)benzonitrile], the IC50 turned out to be 4.04 µM.

As for `C[C@H]1C[C@]2(CCc3ccccc3O2)CCN1CCO[C@H]1CCc2ccccc21` [Example 433, (2S,2′S)-1′-(2-(((S)-2,3-dihydro-1H-inden-1-yl)oxy)ethyl)-2′-methylspiro[chromane-2,4′-piperidine]], the IC50 came to 0.32 µM.

For the compound `COc1ccc2c(c1)C(CN1CCC(Oc3cncnc3)CC1)CC2` (centres unmarked) [Example 126, 5-((1-((6-methoxy-2,3-dihydro-1H-inden-1-yl)methyl)piperidin-4-yl)oxy)pyrimidine], the IC50 is above 3.16 µM.

As to `O=C1c2ccccc2CCN1CCN1CC[C@@H]2C[C@H]1CN2c1ccccc1` [Example 324, 2-(2-((1S,5R)-6-phenyl-2,6-diazabicyclo[3.2.1]octan-2-yl)ethyl)-3,4-dihydroisoquinolin-1(2H)-one], the IC50 was above 3.16 µM.

`O[C@@H](COC1CCCCC1)CN1CC[C@@H]2C[C@H]1CN2c1ccccc1` [Example 327, (R)-1-(cyclohexyloxy)-3-((1S,5R)-6-phenyl-2,6-diazabicyclo[3.2.1]octan-2-yl)propan-2-ol]: the IC50 was above 3.16 µM.

In the case of `COc1ccccc1OC1CCN(CC2COc3ccccc32)CC1` (centres unmarked) [Example 130, 1-((2,3-dihydrobenzofuran-3-yl)methyl)-4-(2-methoxyphenoxy)piperidine], the IC50 is above 10 µM.

Turning to `c1ccc(N2C[C@@H]3C[C@H]2CCN3CC2Cc3cccnc3C2)cc1` (stereo partly drawn) [Example 320, 6-(((1S,5R)-6-phenyl-2,6-diazabicyclo[3.2.1]octan-2-yl)methyl)-6,7-dihydro-5H-cyclopenta[b]pyridine], the IC50 is above 10 µM.

Turning to `O=C1c2ccccc2CCN1CCN1CC[C@H](Oc2ccccn2)C1` [Example 16, (S)-2-(2-(3-(pyridin-2-yloxy)pyrrolidin-1-yl)ethyl)-3,4-dihydroisoquinolin-1(2H)-one], the IC50 amounted to 1.85 µM.

As for `COc1ccc2c(c1)C(CN1CCC(Oc3ccc(C#N)cc3)CC1)CC2` (centres unmarked) [Example 120, 4-((1-((6-methoxy-2,3-dihydro-1H-inden-1-yl)methyl)piperidin-4-yl)oxy)benzonitrile], the IC50 was determined as 0.44 µM.

Turning to `c1ccc(N2C[C@@H]3C[C@H]2CCN3CC2Cc3ccncc3C2)cc1` (stereo partly drawn) [Example 321, 6-(((1S,5R)-6-phenyl-2,6-diazabicyclo[3.2.1]octan-2-yl)methyl)-6,7-dihydro-5H-cyclopenta[c]pyridine], the IC50 was above 10 µM.

Consider `COC(CCN1CCC(Oc2ccccc2)CC1)c1ccccc1` (centres unmarked) [Example 226, 1-(3-methoxy-3-phenylpropyl)-4-phenoxypiperidine], for which the IC50 stood at 0.02 µM.

On to `COc1ccccc1CN1CCC2(CCN(c3ccccc3)C2)C1` (centres unmarked) [Example 342, 2-(2-methoxybenzyl)-7-phenyl-2,7-diazaspiro[4.4]nonane], for which the IC50 stood at 2.08 µM.

As for `COc1ccccc1O[C@H]1CCN(CCC2CCOc3ccccc32)[C@@H](C)C1` (stereo partly drawn) [Example 181, (2S,4S)-1-(2-(chroman-4-yl)ethyl)-4-(2-methoxyphenoxy)-2-methylpiperidine], the 50% inhibitory concentration (IC50) was above 10 µM.
